According to patent US10450347B2, “Immunomodulators” (BRISTOL-MYERS SQUIBB COMPANY, priority 2015, dated 2019):
Starred links: 1 amine or outer side, 2 acyl side, 3 side chain; linkers in the order of their positions; H or OH if unused. Positions of bridges follow the written chain, without caps; N, C: chain ends. Non-standard residues stand in square brackets, D forms with d. Residues, ends and D or L forms follow the SMILES beside them. Tyrψ(CN4)Ala = C[C@@H](C(=O)[*:2])n1nnnc1[C@H](Cc1ccc(O)cc1)N[*:1]; X1 = CCCC[C@@H](C(=O)[*:2])n1nnnc1[C@H](Cc1c[nH]c2ccccc12)N[*:1]; X5 = C[C@@H](C(=O)[*:2])n1nnnc1[C@H](Cc1ccccc1)N[*:1]; Bta = N[C@@H](Cc1csc2ccccc12)C(=O)O; Hyp = O=C(O)[C@@H]1C[C@@H](O)CN1; NMeNle = CCCC[C@H](NC)C(=O)O; NMeA = CN[C@@H](C)C(=O)O; Orn = NCCC[C@H](N)C(=O)O; Dap = NC[C@H](N)C(=O)O

Molecular target: T1, PD-1-Ig/PD-L1-His (Homo sapiens, UniProt Q9NZQ7)
T1 construct: [hPD-L1(19-239)-tobacco vein mottling virus protease cleavage site (TVMV)-His]; made in house; host or cells: HEK293T cells
Experiment: PD-1/PD-L1 Homogenous Time-Resolved Fluorescence (HTRF) binding assay
Conditions: inhibition of PD-1-Ig binding to PD-L1-TVMV-His; range classes
Text: The ability of the macrocyclic peptides of the present disclosure to bind to PD-L1 was investigated using a PD-1/PD-L1 Homogenous Time-Resolved Fluorescence (HTRF) binding assay.
Homogenous Time-Resolved Fluorescence (HTRF) Assays of Binding of Soluble PD-1 to Soluble PD-L1. Soluble PD-1 and soluble PD-L1 refers to proteins with carboxyl-end truncations that remove the transmembrane-spanning regions and are fused to heterologous sequences, specifically the Fc portion of the human immunoglobuling G sequence (Ig) or the hexahistidine epitope tag (SEQ ID NO: 3) (His). All binding studies were performed in an HTRF assay buffer consisting of dPBS supplemented with 0.1% (w/v) bovine serum albumin and 0.05% (v/v) Tween-20. For the PD-1-Ig/PD-L1-His binding assay, inhibitors were pre-incubated with PD-L1-His (10 nM final) for 15 m in 4 μl of assay buffer, followed by addition of PD-1-Ig (20 nM final) in 1 μl of assay buffer and further incubation for 15 m. PD-L1 fusion proteins from either human, cynomologous macaques, mouse, or other species were used. HTRF detection was achieved using europium crypate-labeled anti-Ig monoclonal antibody (1 nM final) and allophycocyanin (APC) labeled anti-His monoclonal antibody (20 nM final). Antibodies were diluted in HTRF detection buffer and 5 μl was dispensed on top of binding reaction. The reaction was allowed to equilibrate for 30 minutes and signal (665 nm/620 nm ratio) was obtained using an EnVision fluorometer. Additional binding assays were established between PD-1-Ig/PD-L2-His (20 and 5 nM, respectively), CD80-His/PD-L1-Ig (100 and 10 nM, respectively) and CD80-His/CTLA4-Ig (10 and 5 nM, respectively). Binding/competition studies between biotinylated Compound No. 71 and human PD-L1-His were performed as follows. Macrocyclic peptide inhibitors were pre-incubated with PD-L1-His (10 nM final) for 60 minutes in 4 μl of assay buffer followed by addition of biotinylated Compound No. 71 (0.5 nM final) in 1 μl of assay buffer. Binding was allowed to equilibrate for 30 minutes followed by addition of europium crypated labeled Streptavidin (2.5 pM final) and APC-labeled anti-His (20 nM final) in 5 μl of HTRF buffer. The reaction was allowed to equilibrate for 30 m and signal (665 nm/620 nm ratio) was obtained using an EnVision fluorometer.
Recombinant Proteins. Carboxyl-truncated human PD-1 (amino acids 25-167) with a C-terminal human Ig epitope tag [hPD-1 (25-167)-3S-IG] and human PD-L1 (amino acids 18-239) with a C-terminal His epitope tag [hPD-L1(19-239)-tobacco vein mottling virus protease cleavage site (TVMV)-His] were expressed in HEK293T cells and purified sequentially by recombinant Protein A affinity chromatography and size exclusion chromatography. Human PD-L2-His (Sino Biologicals), CD80-His (Sino Biologicals), CTLA4-Ig (RnD Systems) were all obtained through commercial sources.

T1 sequence (Q9NZQ7 with tags, fused parts or gaps): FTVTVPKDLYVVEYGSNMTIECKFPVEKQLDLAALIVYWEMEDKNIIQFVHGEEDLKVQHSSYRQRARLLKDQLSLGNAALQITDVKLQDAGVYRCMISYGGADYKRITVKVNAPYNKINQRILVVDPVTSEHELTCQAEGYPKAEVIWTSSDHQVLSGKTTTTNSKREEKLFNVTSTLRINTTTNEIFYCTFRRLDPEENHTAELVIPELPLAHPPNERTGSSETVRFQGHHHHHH

Row | Structure (SMILES) | IC50 [nM]
1 | CCCC[C@H]1C(=O)N[C@@H](CCC(=O)O)C(=O)N[C@H](C(=O)NCC(N)=O)CSCC(=O)N[C@@H](Cc2ccc(O)cc2)C(=O)N(C)[C@@H](C)C(=O)N[C@@H](CC(=O)O)C(=O)N2CCC[C@H]2C(=O)N[C@@H](CN)C(=O)N[C@@H](CCC(=O)O)C(=O)N2C[C@H](O)C[C@H]2C(=O)N[C@@H](Cc2c[nH]c3ccccc23)C(=O)N[C@@H](CO)C(=O)N[C@@H](Cc2c[nH]c3ccccc23)c2nnnn2[C@@H](CCCC)C(=O)N1C [Example 1101] ({CH2CO}-Y[NMeA]DP[Dap]E[Hyp]WS[X1][NMeNle]ECG-NH2; thioether N-13) | 100 to 10000
2 | CCCC[C@H]1C(=O)N[C@@H](CN)C(=O)N[C@H](C(=O)NCC(N)=O)CSCC(=O)N[C@@H](Cc2ccc(O)cc2)C(=O)N(C)[C@@H](C)C(=O)N[C@@H](CC(=O)O)C(=O)N2CCC[C@H]2C(=O)N[C@@H](Cc2c[nH]cn2)C(=O)N[C@@H](CCC(=O)O)C(=O)N2C[C@H](O)C[C@H]2C(=O)N[C@@H](Cc2c[nH]c3ccccc23)C(=O)N[C@@H](CO)C(=O)N[C@@H](Cc2cccc3ccccc23)c2nnnn2[C@@H](CCCC)C(=O)N1C [Example 1108] | 100 to 10000
3 | CCCC[C@H]1C(=O)N(C)CC(=O)N[C@@H](CC(=O)O)C(=O)N[C@@H](C(C)C)C(=O)N(C)[C@@H](Cc2ccccc2)C(=O)N[C@@H](Cc2ccc(O)cc2)C(=O)N(C)CC(=O)N[C@@H](Cc2c[nH]c3ccccc23)C(=O)N[C@@H](Cc2ccc(O)cc2)C(=O)N[C@@H](CC(C)C)C(=O)N[C@H](C(=O)NCC(N)=O)CSCC(=O)NC(Cc2ccccc2)c2nnnn2[C@@H](Cc2ccccc2)C(=O)N1C (single isomer, unassigned) [Example 3001] | 100 to 10000
4 | CCCC[C@H]1C(=O)N[C@@H](CCCN)C(=O)N[C@H](C(=O)NCC(N)=O)CSCC(=O)N[C@@H](Cc2ccc(O)cc2)C(=O)N(C)[C@@H](C)C(=O)N[C@@H](CC(N)=O)C(=O)N2CCC[C@H]2C(=O)N[C@@H](CN)C(=O)N[C@@H](CC(C)C)C(=O)N2C[C@H](O)C[C@H]2C(=O)N[C@@H](Cc2c[nH]c3ccccc23)C(=O)N[C@@H](CO)C(=O)N[C@@H](Cc2c[nH]c3ccccc23)c2nnnn2[C@@H](CCCC)C(=O)N1C [Example 1051] ({CH2CO}-Y[NMeA]NP[Dap]L[Hyp]WS[X1][NMeNle][Orn]CG-NH2; thioether N-13) | 100 to 10000
5 | CCCC[C@H]1C(=O)N(C)[C@@H](CCCC)C(=O)N[C@@H](CC(C)C)C(=O)N[C@H](C(=O)NCC(N)=O)CSCC(=O)N[C@@H](Cc2ccc(O)cc2)c2nnnn2[C@@H](C)C(=O)N[C@@H](CC(N)=O)C(=O)N2CCC[C@H]2C(=O)N[C@@H](Cc2cnc[nH]2)C(=O)N[C@@H](CCC(N)=O)C(=O)N2C[C@H](O)C[C@H]2C(=O)N[C@@H](Cc2c[nH]c3ccccc23)C(=O)N[C@@H](CO)C(=O)N[C@@H](Cc2c[nH]c3ccccc23)C(=O)N1C [Example 1057] ({CH2CO}-[Tyrψ(CN4)Ala]NPHQ[Hyp]WSW[NMeNle][NMeNle]LCG-NH2; thioether N-13) | 100 to 10000
6 | CCCC[C@H]1C(=O)N[C@@H](CN)C(=O)N[C@H](C(=O)NCC(N)=O)CSCC(=O)N[C@@H](Cc2ccc(O)cc2)C(=O)N(C)[C@@H](C)C(=O)N[C@@H](CC(=O)O)C(=O)N2CCC[C@H]2C(=O)N[C@@H](CN)C(=O)N[C@@H](CCC(=O)O)C(=O)N2C[C@H](O)C[C@H]2C(=O)N[C@@H](Cc2c[nH]c3ccccc23)C(=O)N[C@@H](CO)C(=O)N[C@@H](Cc2cccc3ccccc23)c2nnnn2[C@@H](CCCC)C(=O)N1C [Example 1109] | 10 to 99
7 | CCCC[C@H]1C(=O)N[C@@H](CCC(=O)O)C(=O)N[C@H](C(=O)NCC(N)=O)CSCC(=O)N[C@@H](Cc2ccc(O)cc2)C(=O)N(C)[C@@H](C)C(=O)N[C@@H](CC(=O)O)C(=O)N2CCC[C@H]2C(=O)N[C@@H](Cc2cnc[nH]2)C(=O)N[C@@H](CCC(N)=O)C(=O)N2C[C@H](O)C[C@H]2C(=O)N[C@@H](Cc2c[nH]c3ccccc23)C(=O)N[C@@H](CO)C(=O)N[C@@H](Cc2cccc3ccccc23)c2nnnn2[C@@H](CCCC)C(=O)N1C [Example 1104] | 10 to 99
8 | CCCC[C@H]1C(=O)NC(CCCNC(=N)N)C(=O)N[C@H](C(=O)NCC(N)=O)CSCC(=O)N[C@@H](Cc2ccc(O)cc2)C(=O)N(C)[C@@H](C)C(=O)N[C@@H](CC(N)=O)C(=O)N2CCC[C@H]2C(=O)N[C@@H](Cc2cnc[nH]2)C(=O)N[C@@H](CC(C)C)C(=O)N2CCC[C@H]2C(=O)N[C@@H](Cc2c[nH]c3ccccc23)C(=O)N[C@@H](CO)C(=O)N[C@@H](Cc2cccc3ccccc23)c2nnnn2[C@@H](CCCC)C(=O)N1C (stereo partly shown) [Example 1006] | 100 to 10000
9 | CCCC[C@H]1C(=O)N(C)[C@@H](CCCC)C(=O)N[C@@H](CCCNC(=N)N)C(=O)N[C@H](C(=O)NCC(N)=O)CSCC(=O)N[C@@H](Cc2ccccc2)c2nnnn2[C@@H](C)C(=O)N[C@@H](CC(N)=O)C(=O)N2CCC[C@H]2C(=O)N[C@@H](Cc2cnc[nH]2)C(=O)N[C@@H](CC(C)C)C(=O)N2CCC[C@H]2C(=O)N[C@@H](Cc2c[nH]c3ccccc23)C(=O)N[C@@H](CO)C(=O)N[C@@H](Cc2csc3ccccc23)C(=O)N1C [Example 1010] ({CH2CO}-[X5]NPHLPWS[Bta][NMeNle][NMeNle]RCG-NH2; thioether N-13) | 100 to 10000
10 | CCCC[C@H]1C(=O)N(C)[C@@H](CCCC)C(=O)N[C@@H](CCC(=O)O)C(=O)N[C@H](C(=O)NCC(N)=O)CSCC(=O)N[C@@H](Cc2ccc(O)cc2)c2nnnn2[C@@H](C)C(=O)N[C@@H](CC(=O)O)C(=O)N2CCC[C@H]2C(=O)N[C@@H](Cc2c[nH]cn2)C(=O)N[C@@H](CCC(N)=O)C(=O)N2C[C@H](O)C[C@H]2C(=O)N[C@@H](Cc2c[nH]c3ccccc23)C(=O)N[C@@H](CO)C(=O)N[C@@H](Cc2csc3ccccc23)C(=O)N1C [Example 1106] ({CH2CO}-[Tyrψ(CN4)Ala]DPHQ[Hyp]WS[Bta][NMeNle][NMeNle]ECG-NH2; thioether N-13) | 100 to 10000
11 | CCCC[C@H]1C(=O)N[C@@H](CCC(=O)O)C(=O)N[C@H](C(=O)NCC(N)=O)CSCC(=O)N[C@@H](Cc2ccc(O)cc2)C(=O)N(C)[C@@H](C)C(=O)N[C@@H](CC(N)=O)C(=O)N2CCC[C@H]2C(=O)N[C@@H](CN)C(=O)N[C@@H](CC(C)C)C(=O)N2C[C@H](O)C[C@H]2C(=O)N[C@@H](Cc2c[nH]c3ccccc23)C(=O)N[C@@H](CO)C(=O)N[C@@H](Cc2c[nH]c3ccccc23)c2nnnn2[C@@H](CCCC)C(=O)N1C [Example 1102] ({CH2CO}-Y[NMeA]NP[Dap]L[Hyp]WS[X1][NMeNle]ECG-NH2; thioether N-13) | 100 to 10000
12 | CCCC[C@@H]1C(=O)N[C@@H](CCCNC(=N)N)C(=O)N[C@H](C(=O)NCC(N)=O)CSCC(=O)N[C@@H](Cc2ccccc2)c2cnnn2[C@@H](C)C(=O)N[C@H](CC(N)=O)C(=O)N2CCC[C@H]2C(=O)N[C@@H](Cc2cnc[nH]2)C(=O)N[C@@H](CC(C)C)C(=O)N(C)CC(=O)N[C@@H](Cc2c[nH]c3ccccc23)C(=O)N[C@@H](CO)C(=O)N[C@@H](Cc2c[nH]c3ccccc23)C(=O)N(C)[C@@H](CCCC)C(=O)N1C (single isomer, unassigned) [Example 1004] | 100 to 10000
13 | CCCC[C@H]1C(=O)N[C@H](CCCNC(=N)N)C(=O)N[C@@H](C(=O)NCC(N)=O)CSCC(=O)N[C@@H](Cc2ccccc2)C(=O)N(C)[C@@H](C)C(=O)N[C@@H](CC(N)=O)C(=O)N2CCC[C@H]2C(=O)N[C@@H](Cc2cnc[nH]2)C(=O)N[C@@H](CC(C)C)C(=O)N(C)CC(=O)N[C@@H](Cc2c[nH]c3ccccc23)C(=O)N[C@@H](CO)C(=O)N[C@@H](Cc2cccc3ccccc23)c2nnnn2[C@@H](CCCC)C(=O)N1C [Example 1005] | 100 to 10000
